From ChEMBL document CHEMBL1201862, “PubChem BioAssay data set” (2004)
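Five concentrations, 48 hours, 96-well plates. Here, GI50 denotes the concentration required for 50% inhibition of growth.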 The source made the active and inactive calls. Cut-off read from the data, not from the text of the source: active = GI50 up to about 1.1 µM and inactive = higher.

Experiments:
Experiment in all cases: NCI tumour cell line growth inhibition, 48 h
SK-MEL-5 = tested on: SK-MEL-5
NCI-H522 = tested on: NCI-H522
MOLT-4 = tested on: MOLT-4
PC-3 = tested on: PC-3
BT-549 = tested on: BT-549
EKVX = tested on: EKVX
IGROV-1 = tested on: IGROV-1
OVCAR-3 = tested on: OVCAR-3
T47D = tested on: T47D
MCF7 = tested on: MCF7
KM-20L2 = tested on: KM-20L2
RPMI-8226 = tested on: RPMI-8226
HCC 2998 = tested on: HCC 2998
DLD-1 = tested on: DLD-1
HCT-116 = tested on: HCT-116
M14 = tested on: M14
HOP-62 = tested on: HOP-62
HL-60 = tested on: HL-60
NCI-H226 = tested on: NCI-H226
MDA-MB-231 = tested on: MDA-MB-231

**Q.** How did the GI50 (SK-MEL-5) turn out when `CCOC(=O)C(Cc1cc(OC)c(CC(C(=O)OCC)C(=O)OCC)cc1OC)C(=O)OCC` was run?
**A.** > 100 µM (inactive)

**Q.** What about the GI50 (NCI-H522) of the same compound?
**A.** > 100 µM (inactive)

**Q.** And the GI50 (MOLT-4)?
**A.** > 100 µM (inactive)

**Q.** And the GI50 (PC-3)?
**A.** > 100 µM (inactive)

**Q.** What about the GI50 (BT-549) of the same compound?
**A.** > 100 µM (inactive)

**Q.** What about the GI50 (EKVX) of the same compound?
**A.** > 100 µM (inactive)

**Q.** What about the GI50 (IGROV-1) of the same compound?
**A.** > 100 µM (inactive)

**Q.** What about the GI50 (OVCAR-3) of the same compound?
**A.** > 100 µM (inactive)

**Q.** And the GI50 (T47D)?
**A.** > 100 µM (inactive)

**Q.** What about the GI50 (MCF7) of the same compound?
**A.** > 100 µM (inactive)

**Q.** What about the GI50 (KM-20L2) of the same compound?
**A.** > 100 µM (inactive)

**Q.** What about the GI50 (RPMI-8226) of the same compound?
**A.** > 100 µM (inactive)

**Q.** And the GI50 (HCC 2998)?
**A.** > 100 µM (inactive)

**Q.** And the GI50 (DLD-1)?
**A.** > 100 µM (inactive)

**Q.** And the GI50 (HCT-116)?
**A.** > 100 µM (inactive)

**Q.** What about the GI50 (M14) of the same compound?
**A.** > 100 µM (inactive)

**Q.** And the GI50 (HOP-62)?
**A.** > 59.3 µM (inactive)

**Q.** What about the GI50 (HL-60) of the same compound?
**A.** > 100 µM (inactive)

**Q.** What about the GI50 (NCI-H226) of the same compound?
**A.** > 91.4 µM (inactive)

**Q.** What about the GI50 (MDA-MB-231) of the same compound?
**A.** 44.9 µM (inactive)

**Q.** What does the source list for `COc1ccc2[nH]c3ccc4cc[n+](CCN5CCC(C6CCN(CC[n+]7ccc8ccc9[nH]c%10ccc(OC)cc%10c9c8c7)CC6)CC5)cc4c3c2c1`?
**A.** GI50 (SK-MEL-5): 1.81 µM (inactive); GI50 (NCI-H522): 0.875 µM (active); GI50 (MOLT-4): 0.346 µM (active); GI50 (PC-3): 31 µM (inactive); GI50 (BT-549): 35.5 µM (inactive); GI50 (EKVX): > 50 µM (inactive); GI50 (IGROV-1): 0.352 µM (active); GI50 (OVCAR-3): > 62.1 µM (inactive); GI50 (T47D): 20.4 µM (inactive); GI50 (KM-20L2): 1.36 µM (inactive); GI50 (DLD-1): 0.824 µM (active); GI50 (HCT-116): 0.262 µM (active); GI50 (M14): > 50 µM (inactive); GI50 (HOP-62): > 40.6 µM (inactive); GI50 (NCI-H226): 29.4 µM (inactive); GI50 (MDA-MB-231): 8.04 µM (inactive)

**Q.** Which GI50 (SK-MEL-5) does the source give for `O=C1OC(=O)c2c1c(-c1ccccc1)nc1ccccc21` here?
**A.** > 100 µM (inactive)

**Q.** And the GI50 (NCI-H522)?
**A.** > 100 µM (inactive)

**Q.** And the GI50 (MOLT-4)?
**A.** > 100 µM (inactive)

**Q.** And the GI50 (EKVX)?
**A.** > 100 µM (inactive)

**Q.** What about the GI50 (IGROV-1) of the same compound?
**A.** > 100 µM (inactive)

**Q.** And the GI50 (OVCAR-3)?
**A.** > 100 µM (inactive)

**Q.** And the GI50 (KM-20L2)?
**A.** > 100 µM (inactive)

**Q.** What about the GI50 (RPMI-8226) of the same compound?
**A.** > 100 µM (inactive)

**Q.** What about the GI50 (HCC 2998) of the same compound?
**A.** > 100 µM (inactive)

**Q.** And the GI50 (DLD-1)?
**A.** > 100 µM (inactive)

**Q.** What about the GI50 (HCT-116) of the same compound?
**A.** > 100 µM (inactive)

**Q.** What about the GI50 (M14) of the same compound?
**A.** > 100 µM (inactive)

**Q.** What about the GI50 (HOP-62) of the same compound?
**A.** > 100 µM (inactive)

**Q.** What about the GI50 (HL-60) of the same compound?
**A.** > 100 µM (inactive)

**Q.** What about the GI50 (NCI-H226) of the same compound?
**A.** > 100 µM (inactive)
